In brackets after ≈: the same amount, converted by molar mass.
How the values were obtained:
[1] = biological target: T1, Beta-1 adrenergic receptor (Homo sapiens, UniProt P08588); assay: Displacement of [125I]cyanopindolol from human adrenergic beta-1 receptor expressed in CHOK1 cells; format: cell-based, CHO-K1
Target sequence in this assay (P08588 whole entry): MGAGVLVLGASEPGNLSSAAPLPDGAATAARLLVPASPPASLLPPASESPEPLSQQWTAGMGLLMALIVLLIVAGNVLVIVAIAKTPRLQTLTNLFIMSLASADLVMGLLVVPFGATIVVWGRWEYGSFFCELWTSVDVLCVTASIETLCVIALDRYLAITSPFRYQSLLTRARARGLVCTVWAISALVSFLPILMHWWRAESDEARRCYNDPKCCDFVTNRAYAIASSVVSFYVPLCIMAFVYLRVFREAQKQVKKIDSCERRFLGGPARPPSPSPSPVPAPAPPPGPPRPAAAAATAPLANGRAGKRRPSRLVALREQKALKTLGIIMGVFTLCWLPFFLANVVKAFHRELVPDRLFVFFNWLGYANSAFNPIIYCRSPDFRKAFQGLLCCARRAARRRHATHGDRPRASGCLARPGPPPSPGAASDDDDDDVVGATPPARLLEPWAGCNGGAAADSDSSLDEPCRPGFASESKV

[2] = biological target: T2, Beta-2 adrenergic receptor (Homo sapiens, UniProt P07550); assay: biochemical
Description: Displacement of [125I]cyanopindolol from human adrenergic beta2 receptor expressed in CHOK1 cells

[3] = biological target: T3, Beta-3 adrenergic receptor (Homo sapiens, UniProt P13945); assay: biochemical
Description: Displacement of [125I]cyanopindolol from human adrenergic beta3 receptor expressed in CHOK1 cells

[4] = Cytotoxicity against human HepG2 cells; format: cell-based; settings: read-out: ED50 (the source's name)
[5] = Solubility at pH 4; format: physicochemical; settings: buffer
[6] = Cmax in Wistar rat at 10 mg/kg, po; format: ADME, organism-based; set-up: dose 10 mg/kg, route oral; settings: in vivo
[7] = Cytotoxicity against human PBMC cells; format: cell-based; settings: read-out: ED50 (the source's name)
[8] = Solubility at pH 6; format: physicochemical; settings: buffer
[9] = biological target: T2, Beta-2 adrenergic receptor; assay: Antagonist activity at human adrenergic beta2 receptor expressed in CHOK1 cells assessed as inhibition of cAMP accumulation by HTRF assay; format: functional, cell-based, CHO-K1
[10] = biological target: T3, Beta-3 adrenergic receptor
Description: Agonist activity at human adrenergic beta3 receptor expressed in CHOK1 cells assessed as cAMP accumulation by HTRF assay

[11] = biological target: T1, Beta-1 adrenergic receptor; assay: Intrinsic activity at human adrenergic beta-1 receptor expressed in CHOK1 cells assessed as cAMP accumulation by HTRF assay relative to isoproterenol; format: functional, cell-based; settings: CHO-K1
Target sequence in this assay (P08588 whole entry, looked up): as the sequence (P08588 whole entry) above

[12] = Half life in Wistar rat at 10 mg/kg, po; format: ADME, organism-based; set-up: dose 10 mg/kg, route oral; settings: in vivo
[13] = biological target: T1, Beta-1 adrenergic receptor; assay: Agonist activity at human adrenergic beta-1 receptor expressed in CHOK1 cells assessed as cAMP accumulation by HTRF assay; format: functional, cell-based, CHO-K1
Target sequence in this assay (P08588 whole entry): as above

[14] = Permeability by PAMPA method; format: ADME
[15] = biological target: T3, Beta-3 adrenergic receptor; assay: Antagonist activity at human adrenergic beta3 receptor expressed in CHOK1 cells assessed as inhibition of cAMP accumulation by HTRF assay; format: functional, cell-based, CHO-K1
[16] = biological target: T1, Beta-1 adrenergic receptor; assay: Antagonist activity at human adrenergic beta-1 receptor expressed in CHOK1 cells assessed as inhibition of cAMP accumulation by HTRF assay; format: functional, cell-based, CHO-K1
Target sequence in this assay (P08588 whole entry): as above

T2 sequence (P07550 whole entry): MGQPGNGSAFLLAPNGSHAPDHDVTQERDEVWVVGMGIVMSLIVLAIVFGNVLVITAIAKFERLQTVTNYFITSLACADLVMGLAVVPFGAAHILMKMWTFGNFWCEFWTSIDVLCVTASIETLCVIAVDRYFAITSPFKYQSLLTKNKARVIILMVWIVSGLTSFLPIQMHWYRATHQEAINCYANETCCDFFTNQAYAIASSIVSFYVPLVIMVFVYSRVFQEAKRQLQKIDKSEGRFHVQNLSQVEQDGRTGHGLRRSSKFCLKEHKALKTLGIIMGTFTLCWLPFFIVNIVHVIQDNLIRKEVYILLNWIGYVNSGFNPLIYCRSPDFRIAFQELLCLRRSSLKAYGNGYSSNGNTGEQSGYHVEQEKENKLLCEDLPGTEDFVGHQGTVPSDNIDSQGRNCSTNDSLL
T3 sequence (P13945 whole entry): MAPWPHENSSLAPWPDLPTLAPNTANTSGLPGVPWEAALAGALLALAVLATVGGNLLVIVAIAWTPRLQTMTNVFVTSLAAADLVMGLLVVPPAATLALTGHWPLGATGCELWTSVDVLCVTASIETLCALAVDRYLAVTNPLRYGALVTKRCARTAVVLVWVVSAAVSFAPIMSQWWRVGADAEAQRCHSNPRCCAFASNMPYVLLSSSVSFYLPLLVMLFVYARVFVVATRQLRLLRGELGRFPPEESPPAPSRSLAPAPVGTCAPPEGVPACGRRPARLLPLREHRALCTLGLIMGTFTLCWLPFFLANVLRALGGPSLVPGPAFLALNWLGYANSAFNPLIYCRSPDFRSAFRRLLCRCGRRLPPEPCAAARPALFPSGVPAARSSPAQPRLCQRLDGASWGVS

SMILES: C=CCc1ccccc1OCC(O)CN1CCC(N2C(=O)c3cccc4cccc(c34)C2=O)CC1 (configuration not stated)
- Ki ([1]; read-out: Ki): 1050 nM
- Ki [2]: 40 nM
- Ki [3]: 2340 nM

SMILES: C=CCc1ccccc1OCC(O)CN1CCC(CN2C(=O)c3ccccc3C2=O)CC1 (configuration not stated)
- Ki ([1]; read-out: Ki): 190 nM
- Ki [2]: 50 nM
- Ki [3]: 3400 nM

SMILES: C=CCc1ccccc1OCC(O)CNC1CCN(C)CC1 (configuration not stated)
- Ki ([1]; read-out: Ki): 260 nM
- Ki [2]: 2.4 nM
- Ki [3]: 6220 nM

SMILES: Cc1ccc(C(C)C)c(OCC(O)CN2CCN(CCN3C(=O)c4cccc5cccc(c45)C3=O)CC2)c1 (configuration not stated)
- Ki ([1]; cho-k1): Not Active
- Ki [2]: 110 nM
- Ki [3]: > 10000 nM

SMILES: O=C(c1ccc(F)cc1)C1CCN(CC(O)COc2cccc3[nH]c4ccccc4c23)CC1 (configuration not stated)
- CC50 [4]: 19000 nM
- solubility [5]: 180 µM (≈ 80.4 µg/mL)
- Cmax [6]: 290 nM
- Ki ([1]; read-out: Ki): 32 nM
- CC50 [7]: 9000 nM
- Ki [2]: 0.3 nM
- solubility [8]: 10 µM (≈ 4.47 µg/mL)
- IC50 [9]: 32 nM
- EC50 [10]: 385 nM
- Intrinsic activity [11]: 20%
- half-life [12]: 7.5 h
- EC50 [13]: 310 nM
- Activity [14]: Active
- Ki [3]: 250 nM

SMILES: C=CCc1ccccc1OCC(O)CN1CCC(CN2C(=O)CCCC2=O)CC1 (configuration not stated)
- Ki ([1]; read-out: Ki): 440 nM
- Ki [2]: 80 nM
- Ki [3]: 11000 nM

SMILES: O=C(c1ccccc1)C1CCN(CC(O)COc2cccc3[nH]c4ccccc4c23)CC1 (configuration not stated)
- Ki ([1]; read-out: Ki): 16 nM
- Ki [2]: 0.2 nM
- Ki [3]: 230 nM

SMILES: CC(C)c1ccccc1OCC(O)CNC1CCN(C)CC1 (configuration not stated)
- Ki ([1]; read-out: Ki): 89 nM
- Ki [2]: 17 nM
- Ki [3]: 1060 nM

SMILES: COc1ccc(OCC(O)CN2CCC(CN3C(=O)c4cccc5cccc(c45)C3=O)CC2)c(C(C)(C)C)c1 (configuration not stated)
- Ki ([1]; read-out: Ki): 530 nM
- Ki [2]: 300 nM
- Ki [3]: 3380 nM

SMILES: CC(C)c1ccccc1OCC(O)CN1CCC(CN2C(=O)c3ccccc3C2=O)CC1 (configuration not stated)
- Ki ([1]; read-out: Ki): 720 nM
- Ki [2]: 17 nM
- Ki [3]: 1480 nM

SMILES: C=CCc1ccccc1OCC(O)CN1CCC(CN2C(=O)c3cccc4cc(O)cc(c34)C2=O)CC1 (configuration not stated)
- Ki ([1]; read-out: Ki): 170 nM
- Ki [2]: 135 nM
- Ki [3]: 2200 nM

SMILES: OC(COc1cccc2[nH]c3ccccc3c12)CN1CCC(Cc2cccnc2)CC1 (configuration not stated)
- Ki ([1]; read-out: Ki): 1 nM
- Ki [2]: 0.1 nM
- Ki [3]: 72 nM

SMILES: O=C1c2cccc3cccc(c23)C(=O)N1C1CCN(CC(O)COc2cccc3[nH]c4ccccc4c23)CC1 (configuration not stated)
- Ki ([1]; read-out: Ki): 76 nM
- Ki [2]: 57 nM
- Ki [3]: 98 nM

SMILES: C=CCc1ccccc1OCC(O)CN1CCC(CN2C(=O)c3cccc4cc(OC)cc(c34)C2=O)CC1 (configuration not stated)
- Ki ([1]; read-out: Ki): 300 nM
- Ki [2]: 78 nM
- Ki [3]: 1510 nM

SMILES: COc1cc2c3c(cccc3c1)C(=O)N(CC1CCN(CC(O)COc3ccccc3C(C)C)CC1)C2=O (configuration not stated)
- Ki ([1]; read-out: Ki): 209 nM
- Ki [2]: 38 nM
- Ki [3]: 698 nM

SMILES: CC(C)c1ccccc1OCC(O)CN1CCC(N2C(=O)c3cccc4cccc(c34)C2=O)CC1 (configuration not stated)
- Ki ([1]; read-out: Ki): 240 nM
- Ki [2]: 13 nM
- Ki [3]: 3820 nM

SMILES: COc1ccc(CC2CCN(CC(O)COc3cccc4[nH]c5ccccc5c34)CC2)cc1 (configuration not stated)
- Ki ([1]; read-out: Ki): 3.4 nM
- Ki [2]: 0.2 nM
- Ki [3]: 455 nM

SMILES: COc1ccc(OCC(O)CNC2CCN(c3ncnc4scc(-c5ccccc5)c34)CC2)cc1 (configuration not stated)
- Ki ([1]; read-out: Ki): > 10000 nM

SMILES: OC(COc1cccc2[nH]c3ccccc3c12)CN1CCC(Cc2ccccc2)CC1 (configuration not stated)
- Ki ([1]; read-out: Ki): 14 nM
- Ki [2]: 0.5 nM
- Ki [3]: 230 nM

SMILES: COc1ccc(C(=O)C2CCN(CC(O)COc3cccc4[nH]c5ccccc5c34)CC2)cc1 (configuration not stated)
- Ki ([1]; read-out: Ki): 13 nM
- Ki [2]: 0.2 nM
- Ki [3]: 9180 nM

SMILES: C=CCc1ccccc1OCC(O)CN1CCOCC1 (configuration not stated)
- Ki ([1]; read-out: Ki): 114 nM
- Ki [2]: 7 nM
- Ki [3]: 4960 nM

SMILES: CC(C)c1ccccc1OCC(O)CN1CCC(CN2C(=O)CCCC2=O)CC1 (configuration not stated)
- Ki ([1]; read-out: Ki): 245 nM
- Ki [2]: 9 nM
- Ki [3]: 2900 nM

SMILES: C=CCc1ccccc1OCC(O)CN1CCC(CN2C(=O)c3cccc4cccc(c34)C2=O)CC1 (configuration not stated)
- Ki ([1]; read-out: Ki): 80 nM
- EC50 [10]: 2400 nM
- Ki [3]: 409 nM

SMILES: CC(C)c1ccccc1OCC(O)CN1CCN(CCN2C(=O)c3cccc4cccc(c34)C2=O)CC1 (configuration not stated)
- Ki ([1]; read-out: Ki): 740 nM
- Ki [2]: 70 nM
- Ki [3]: 1480 nM

SMILES: CC(C)c1ccccc1OCC(O)CN1CCC(CN2C(=O)c3cccc4cccc(c34)C2=O)CC1 (configuration not stated)
- Ki ([1]; read-out: Ki): 250 nM
- Ki [2]: 230 nM
- Ki [3]: 1030 nM

SMILES: C=CCc1ccc(OCC(O)CN2CCC(CN3C(=O)c4cccc5cccc(c45)C3=O)CC2)c(OC)c1 (configuration not stated)
- Ki ([1]; read-out: Ki): 1360 nM
- Ki [2]: 3290 nM
- Ki [3]: 3290 nM

SMILES: C=CCc1ccccc1OCC(O)CN1CCN(CCN2C(=O)c3cccc4cccc(c34)C2=O)CC1 (configuration not stated)
- Ki ([1]; read-out: Ki): 293 nM
- Ki [2]: 150 nM
- Ki [3]: 3100 nM

SMILES: Cc1ccc(C(C)C)c(OCC(O)CN2CCC(CN3C(=O)c4cccc5cccc(c45)C3=O)CC2)c1 (configuration not stated)
- Ki ([1]; read-out: Ki): 1000 nM
- Ki [2]: 80 nM
- IC50 [15]: 1470 nM
- Ki [3]: 411 nM
- IC50 [16]: 1380 nM

SMILES: O=C1c2cccc3cccc(c23)C(=O)N1CC1CCN(CC(O)COc2ccc3[nH]ccc3c2)CC1 (configuration not stated)
- Ki ([1]; read-out: Ki): 4530 nM
- Ki [2]: 1260 nM
- Ki [3]: 8500 nM

SMILES: COc1cc2c3c(cccc3c1)C(=O)N(CC1CCN(CC(O)COc3cccc4[nH]c5ccccc5c34)CC1)C2=O (configuration not stated)
- Ki ([1]; read-out: Ki): 0.1 nM
- Ki [2]: 8 nM
- Ki [3]: 410 nM

SMILES: CC(C)c1ccccc1OCC(O)CN1CCOCC1 (configuration not stated)
- Ki ([1]; read-out: Ki): 12 nM
- Ki [2]: 1.2 nM
- Ki [3]: 1770 nM

SMILES: O=C1c2cccc3cccc(c23)C(=O)N1CC1CCN(CC(O)COc2cccc3[nH]c4ccccc4c23)CC1 (configuration not stated)
- Ki ([1]; read-out: Ki): 7 nM
- Ki [2]: 3 nM
- Ki [3]: 225 nM

SMILES: O=C1c2cccc3cccc(c23)C(=O)N1CC1CCN(CC(O)COc2cccc3[nH]ccc23)CC1 (configuration not stated)
- Ki ([1]; read-out: Ki): 27 nM
- Ki [2]: 120 nM
- Ki [3]: 1000 nM

SMILES: O=C1c2cccc3cc(O)cc(c23)C(=O)N1CC1CCN(CC(O)COc2cccc3[nH]c4ccccc4c23)CC1 (configuration not stated)
- Ki ([1]; read-out: Ki): 250 nM
- Ki [2]: 37 nM
- IC50 [9]: 120 nM
- EC50 [10]: 234 nM
- Intrinsic activity [11]: 40%
- EC50 [13]: 80 nM
- Ki [3]: 590 nM

— ChEMBL document CHEMBL1155476, “A vHTS approach for the identification of beta-adrenoceptor ligands” (Bioorg Med Chem Lett, 2010)
